Several values for one entry are separate records, joined by “and”; a condition that tells them apart may be missing. Identical values can stand only once. Toxic doses and inconclusive results are not listed.
System: P388 leukemia ip, CD2F1 mice, survival T/C
Experiment: NCI In Vivo Anticancer Drug Screen. Data for tumor model P388 Leukemia (intraperitoneal) in CD2F1 (CDF1) mice
Details: endpoint: median survival time, higher = longer survival
Method in brief: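 Mice carrying the transplanted tumor received test compound or vehicle. Survival was recorded in each group, and the value is the treated-group measurement divided by that of the vehicle-treated control group.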

[1] = dose: 50.0 mg/kg/injection, schedule: Q01DX005 (ip), vehicle: Klucel (hydroxypropylcellulose) (HPC)
[2] = dose: 100.0 mg/kg/injection, schedule: Q01DX005 (ip), vehicle: Klucel (hydroxypropylcellulose) (HPC)
[3] = dose: 200.0 mg/kg/injection, schedule: Q01DX005 (ip), vehicle: Klucel (hydroxypropylcellulose) (HPC)
[4] = dose: 50.0 mg/kg/injection, schedule: Q01DX009 (ip), vehicle: Klucel (hydroxypropylcellulose) (HPC)
[5] = dose: 100.0 mg/kg/injection, schedule: Q01DX009 (ip), vehicle: Klucel (hydroxypropylcellulose) (HPC)
[6] = dose: 100.0 mg/kg/injection, schedule: Q04DX003 (ip), vehicle: saline with Tween-80
[7] = dose: 200.0 mg/kg/injection, schedule: Q04DX003 (ip), vehicle: saline with Tween-80
[8] = dose: 25.0 mg/kg/injection, schedule: Q01DX009 (ip), vehicle: Klucel (hydroxypropylcellulose) (HPC)

`COc1ccccc1P(C)(=O)c1ccccc1` (stereo unspecified) was tested, and the T/C [1] was 102 % of control, the T/C [2] was 103 % of control and the T/C [3] was 98 % of control.
`COc1cc2c(c(OC)c1OC)-c1ccc(SC)c(=O)cc1[C@@H](NC(=O)CCl)CC2` was tested, and the T/C (dose: 0.03 mg/kg/injection, schedule: Q01DX009 (ip), vehicle: water) was 124 % of control and the T/C (dose: 0.4 mg/kg/injection, schedule: Q01DX009 (ip), vehicle: water) was 155 % of control.
With `O=C1CCC(C(Sc2ccccc2)Sc2ccccc2)C1` (stereo unspecified) the T/C [4] was 110 % of control, the T/C [5] was 106 % of control and the T/C (dose: 200.0 mg/kg/injection, schedule: Q01DX009 (ip), vehicle: Klucel (hydroxypropylcellulose) (HPC)) was 93 % of control.
`CCOC(=O)c1cnc(SCc2ccccc2)[nH]c1=O` was tested, and the T/C [6] was 100 % of control, the T/C [7] was 90 % of control and the T/C (dose: 400.0 mg/kg/injection, schedule: Q04DX003 (ip), vehicle: saline with Tween-80) was 100 % of control.
`CCN(CC)CCNc1ccc(N=Nc2cnc3ccccc3c2)c2ccccc12` was tested, and the T/C (dose: 12.5 mg/kg/injection, schedule: Q01DX009 (ip), vehicle: Klucel (hydroxypropylcellulose) (HPC)) was 110 % of control, the T/C (dose: 12.5 mg/kg/injection, schedule: Q04DX003 (ip), vehicle: Klucel (hydroxypropylcellulose) (HPC)) was 109 % of control and the T/C [8] was 115 % of control. The T/C (dose: 25.0 mg/kg/injection, schedule: Q04DX003 (ip), vehicle: Klucel (hydroxypropylcellulose) (HPC)) was 100 % of control, the T/C [4] was 115 % of control and the T/C (dose: 50.0 mg/kg/injection, schedule: Q04DX003 (ip), vehicle: Klucel (hydroxypropylcellulose) (HPC)) was 100 % of control.
In the case of `COc1cc2c3c(c1O)-c1cc4c(cc1CC3N(C)CC2)OCO4` (stereo unspecified), the T/C (dose: 10.0 mg/kg/injection, schedule: Q01DX009 (ip), vehicle: saline with Tween-80) is reported as 102 % of control, the T/C (dose: 20.0 mg/kg/injection, schedule: Q01DX009 (ip), vehicle: saline with Tween-80) is reported as 104 % of control and the T/C (dose: 40.0 mg/kg/injection, schedule: Q01DX009 (ip), vehicle: saline with Tween-80) is reported as 98 % of control. The T/C (dose: 100.0 mg/kg/injection, schedule: Q04DX002 (ip), vehicle: saline with Tween-80) was 97 % of control.
In the case of `C=CC(=O)P(=O)(OCC)OCC`, the T/C (dose: 100.0 mg/kg/injection, schedule: Q04DX002 (ip), vehicle: saline) is reported as 107 % of control, the T/C (dose: 200.0 mg/kg/injection, schedule: Q04DX002 (ip), vehicle: saline) is reported as 103 % of control and the T/C (dose: 400.0 mg/kg/injection, schedule: Q04DX002 (ip), vehicle: saline) is reported as 98 % of control.
For `C[C@H](N)C(=O)N[C@@H]1[C@H]2C(=C(O)C[C@@H](O)[C@@H]2O)C(=O)O[C@]1(C)C(Cl)Cl`, the T/C (dose: 0.78 mg/kg/injection, schedule: Q01DX009 (ip), vehicle: Klucel (hydroxypropylcellulose) (HPC)) was 150 % of control and 167 % of control, the T/C (dose: 1.56 mg/kg/injection, schedule: Q01DX009 (ip), vehicle: Klucel (hydroxypropylcellulose) (HPC)) was 161 % of control and 187 % of control and 205 % of control and the T/C (dose: 3.12 mg/kg/injection, schedule: Q01DX009 (ip), vehicle: Klucel (hydroxypropylcellulose) (HPC)) was 117 % of control and 118 % of control.
`CC1NC(=O)N(C2CCCCCCC2)C1=O` (stereo unspecified) was tested, and the T/C [1] was 102 % of control, the T/C [2] was 114 % of control and the T/C [3] was 102 % of control.
With `CN1CCC(=C2c3ccccc3CC(O)c3sccc32)CC1` (stereo unspecified) the T/C [6] was 94 % of control and the T/C [7] was 98 % of control.
`COc1ccc(C)cc1C(=C=C=C=C(c1cc(C)ccc1OC)c1ccccc1OCc1ccccc1)c1ccccc1OCc1ccccc1` was tested, and the T/C [8] was 101 % of control, the T/C [4] was 100 % of control and the T/C [5] was 93 % of control.
For `Cc1ccc(Nc2c3ccccc3nc3c2cnn3-c2ccccc2)cc1`, the T/C (dose: 60.0 mg/kg/injection, schedule: Q01DX005 (ip), vehicle: Klucel (hydroxypropylcellulose) (HPC)) was 91 % of control, the T/C (dose: 120.0 mg/kg/injection, schedule: Q01DX005 (ip), vehicle: Klucel (hydroxypropylcellulose) (HPC)) was 90 % of control and the T/C (dose: 240.0 mg/kg/injection, schedule: Q01DX005 (ip), vehicle: Klucel (hydroxypropylcellulose) (HPC)) was 87 % of control.
With `CCCCOCN(COCCCC)c1ccccc1` the T/C (dose: 100.0 mg/kg/injection, schedule: Q01DX001 (ip), vehicle: saline with Tween-80) was 104 % of control, the T/C (dose: 200.0 mg/kg/injection, schedule: Q01DX001 (ip), vehicle: saline with Tween-80) was 113 % of control and the T/C (dose: 400.0 mg/kg/injection, schedule: Q01DX001 (ip), vehicle: saline with Tween-80) was 109 % of control.
